Source: patent US7453011B2, “Cycloalkyl substituted polyamines for cancer therapy and methods of synthesis therefor” (Progen Pharmaceuticals, Inc., priority 2001, dated 2008)
Structures can show the parent of a compound that is named as a salt. Where two headings read alike, the source gives them in different places. Values belong to the compound of their own block, whether it stands above or below them.

Experiments:
[1] = system: DuPro human prostate cancer cell line; assay: MTT assay, DuPro cells; assay type: cell-based
Experimental: (§1) The polyamine analogs inhibited prostate cancer cell growth in vitro., as indicated in Table 1 and FIG. 1, FIG. 2, FIG. 3, FIG. 4, and FIG. 5. Tissue cultures and the MTT assay were performed as follows. Additional protocols for in vitro assays are disclosed in International Patent Applications WO 00/66175, WO 00/66528, WO 00/66587, WO 98/17624, Valasinas et al., J. Med. Chem. 44:390-403 (2001), and U.S. Provisional Patent Application Ser. No. 60/329,982 filed Oct. 16, 2001.
(§2) Tissue Culture. Cells were seeded into 75 cm^2 culture flasks with 15 ml of Eagle's minimal essential medium supplemented with 10% fetal calf serum and nonessential amino acids. The flasks were incubated in a humidified 95% air/5% CO2 atmosphere. The cells were grown for at least 24 h to ensure that they are in the log phase of growth and then they were treated with the polyamine analogs. Cells were harvested by treatment for 5 min with STV (saline A, 0.05% trypsin, 0.02% EDTA) at 37° C. The flasks were rapped on the lab bench, pipetted several times and aliquots of cell suspension were withdrawn and counted using a Coulter particle counter that has been standardized for counting each cell line using a hemacytometer.
(§3) MTT Assay: Trypsinized cell suspensions were diluted to seed 80 μl suspensions containing 500 cells in each well of a 96 well Corning microtiter plate and incubated overnight at 37° C. in a humidified incubator in 5% CO2. 20 μl of appropriately diluted stock solution of each drug (i.e., polyamine analog) were added to the middle 8 columns of cell suspension in the microtiter plates. Each drug concentration was run in quadruplicate. Outer columns of the plates were used for buffer controls. Cells were incubated with the drug for 6 days at 37° C. in 5% CO2/H2O atmosphere. 25 μl of 5 mg/ml solution of 3-(4,5-dimethylthiazol-2-yl)-2,5-diphenyl tetrazolium bromide (MTT) were added to each well and incubated for 4 hours at 37° C. in 5% CO2/H2O incubator. Cells were lysed by incubating overnight with 100 μl lysis buffer (500 ml of the lysis buffer contains: 100 g lauryl sulfate (SDS), 250 ml of N,N-dimethylformamide, and 2 ml of glacial acetic acid, made up to volume with water; pH 4.8).
(§4) The color was monitored at room temperature at 570 nm in a E-max Precision Microplate Reader (Molecular Devices Corporation, Sunnyvale, Calif.) and data was analyzed using cell survival software supplied by Molecular Devices Corporation.
(§5) The effects of SL-11218 and SL-11231 on the growth of human prostate tumor cell lines PC-3, DU-145, DuPro and LnCap and on human breast cancer cell lines MCF-7 and MDA-MB-231 in culture were determined by an MTT assay. The growth inhibitory effects were expressed as ID50 value which is defined as the drug concentration required to inhibit 50% cell growth after 5 days of treatment. The results are shown in Table 2; the numbers are the average of the values determined in at least three separate experiments. Both compounds are effective in inhibiting human prostate tumor cell growth in culture.

[2] = system: PC-3 human prostate cancer cell line; assay: MTT assay, PC-3 cells; assay type: cell-based
Experimental: as §1, §2, §3, §4, §5

[3] = system: DU145 human prostate cancer cell line; assay: MTT assay, DU145 cells; assay type: cell-based; conditions: read-out: ID50 DU145
Experimental: as §1, §2, §3, §4, §5

[4] = system: MCF-7 human breast cancer cell line; assay: MTT assay, MCF-7 cells; assay type: cell-based; conditions: for IC50: Table 2, 5 days of treatment, average of at least three experiments, read-out: ID50 MCF-7
Experimental: as §3, §4, §5

[5] = system: MDA-MB-231 human breast cancer cell line; assay: MTT assay, MDA-MB-231 cells; assay type: cell-based; conditions: Table 2, 5 days of treatment, average of at least three experiments, read-out: ID50 MDA-MB-231
Experimental: as §3, with “Cells were lysed by incubating overnight with 100 μl lysis buffer (500 ml of the lysis buffer contains: 100 g lauryl sulfate (SDS), 250 ml of N,N-dimethylformamide, and 2 ml of glacial acetic acid, made up to volume with water; pH 4.8).” left out
as §4
(§6) The effects of SL-11218 and SL-11231 on the growth of human prostate tumor cell lines PC-3, DU-145, DuPro and LnCap and on human breast cancer cell lines MCF-7 and MDA-MB-231 in culture were determined by an MTT assay. […] The results are shown in Table 2; the numbers are the average of the values determined in at least three separate experiments. […]

[6] = system: DuPro human prostate tumor cell line; assay: Colony forming efficiency (CFE) assay, DuPro; assay type: cell-based; conditions: FIG. 6
[7] = system: DU-145 human prostate tumor xenograft; assay: DU-145 human prostate tumor xenograft in nude mice; assay type: in vivo
Experimental: (§7) Male athymic nude mice were given s.c. injections of 1×10^6 DU-145 cells on Day 0. Beginning on Day 7, mice were treated i.p q1w×4 for 3 cycles with either saline, 50 mg/kg SL-11218 or 75 mg/kg SL-11218 (pH 7.4) i.p. at 10 ml/kg dosing volume. (Cage issues in the control cage were due to a water bottle leaking and lack of food for 24 hours.) The treatment was carried out once weekly for four weeks (q1w×4) in 3 cycles with a 4 week gap between each cycle. (i.e., cycle 1, administration on days 7, 14, 21, 28; cycle 2, administration on days 49, 56, 63, 70; cycle 3, administration on days 98, 105, 112, 119). All p values were compared to vehicle treated mice.
(§8) The effect of SL-11231 at 12.5 mg/kg for 5 consecutive days against DU-145 human prostate tumor xenograft in nude mice is shown in FIG. 8a. […] (Note that the value reported in Table 1 for SL-11231 versus DU-145 cells is for a single experiment, while the value reported in Table 2 is an average of multiple experiments.)

[8] = system: BxPC-3 human pancreatic tumor xenograft; assay: Human pancreatic tumor xenograft in nude mice; assay type: in vivo; conditions: 10 days break
[9] = system: large (~2000 mm^3) DU-145 tumor xenograft; assay: Large DU-145 tumor xenograft in nude mice; assay type: in vivo
Experimental: (§9) In addition, SL-11218 at a dose of 75 mg/kg i.p. for q1w×4 stabilized large (˜2000 mm^3) DU-145 tumor xenograft for 2 cycles with a 4 week gap between each cycle (FIG. 11a). Male athymic nude mice were given s.c. injections of 1×10^6 DU145 cells on Day 0. Beginning on Day 10, mice were given acidified water vehicle orally at 10 ml/kg dosing volume 1× weekly for 8 weeks. On D66 mice began weekly treatment of saline versus SL-11218 i.p. After cycle 1 there was a 27% reduction in tumor volume compared to vehicle treated controls. After cycle 2 there was a significant reduction of 64% with 15% drop in body weight which recovered between cycles. (Cycle 1, administration on days 66, 73, 80, 87; cycle 2, administration on days 115, 122, 129, 136.) BW p values were compared to untreated controls. At d87, p=0.005 for SL-11218. (For saline vehicle, n=9; at d 87 n=8; at d 101, n=4; for SL-11218 n=9; d 80 n=7; d 101 n=5). FIG. 11b indicates the effect of SL-11218 on animal bodyweight (saline vehicle, n=9, at d87, n=8; at d101 n=4; for SL-11218, n=9; at d80, n=7, at d101 n=5; p=0.015 at d98 and 0.001 at d132).

[10] = Body weight of DU-145 tumor-bearing nude mice under treatment; assay type: in vivo
Experimental: as §7, §8, §9

[11] = system: LnCap human prostate cancer cell line; assay: MTT assay, LnCap cells; assay type: cell-based; conditions: read-out: ID50 LnCap
Experimental: as §1, §2
MTT Assay: Trypsinized cell suspensions were diluted to seed 80 μl suspensions containing 500 cells in each well of a 96 well Corning microtiter plate and incubated overnight at 37° C. in a humidified incubator in 5% CO2. […]
as §4, §6

[12] = system: Tsu-pr1 human prostate cancer cell line; assay: MTT assay, Tsu-pr1 cells; assay type: cell-based; conditions: Table 1, read-out: ID50 Tsu-pr1
Experimental: as §1
as §2, with “Cells were harvested by treatment for 5 min with STV (saline A, 0.05% trypsin, 0.02% EDTA) at 37° C.” left out, “hemacytometer. […]” for “hemacytometer.”
as §4

[13] = system: Tsu-pr1-ADR human prostate cancer cell line; assay: MTT assay, Tsu-pr1-ADR cells; assay type: cell-based; conditions: Table 1, read-out: ID50 Tsu-pr1-ADR
Experimental: as §1
as §2, with “Cells were harvested by treatment for 5 min with STV (saline A, 0.05% trypsin, 0.02% EDTA) at 37° C.” left out, “hemacytometer. […]” for “hemacytometer.”
as §4

[14] = multiple injection (ip) schedules; cited from earlier work
[15] = system: L1210 leukemia or Lewis lung carcinoma; conditions: L1210 leukemia or Lewis lung carcinoma grafted in athymic nude mice; cited from earlier work
[16] = Table 1, human prostate cancer cell line DuPro, read-out: ID50 DuPro
[17] = Table 1, PC-3, read-out: ID50 PC-3
[18] = Table 1, DU145, SL-11231 value from a single experiment
[19] = Table 2, 5 days of treatment, average of at least three experiments, read-out: ID50 DUPRO
[20] = Table 2, 5 days of treatment, average of at least three experiments, read-out: ID50 PC3
[21] = Table 2, 5 days of treatment, average of at least three experiments

SMILES: NCCCCNCC1CC1CNCCCCN (racemic) [SL-11245]
IC50 [1, 16]: > 31.2 µM
IC50 [2, 17]: > 31.2 µM
IC50 [3, 18]: 0.61 µM

SMILES: CC(C)(C)NCCCCNCC1CC1CNCCCCNC(C)(C)C (racemic) [SL-11247]
IC50 [1, 16]: > 31.2 µM
IC50 [2, 17]: > 31.2 µM
IC50 [3, 18]: 11.2 µM

SMILES: CCNCCCCNCCCCNCCCCNCC [BE-4-4-4, ^1N,^14N-bisethylhomospermine]
maximum tolerated dose (MTD) [14]: ca. 6 mg/kg
increase in lifespan as compared to control [15]: ca. 6 fold

SMILES: CCNCCCCNCC1CC1CNCCCCN (stereo not drawn) [SL-11242]
IC50 ([2]; Homo sapiens, Table 1, PC-3, read-out: ID50 PC-3): > 31.2 µM

Further compounds by falling IC50 [1, 16], results first:

IC50 [1, 16]: 0.63 µM
IC50 [2, 17]: > 31.2 µM
IC50 [3, 18]: 0.06 µM
SMILES: CCNCC1CC1CNCC1CC1CNCC1CC1CNCC (mixture of isomers) [SL-11215]

IC50 [1, 16]: 0.38 µM
IC50 [1, 19]: 0.38 µM
IC50 [2, 17]: > 31.2 µM
IC50 [2, 20]: > 31.2 µM
IC50 [3, 18]: 0.08 µM
IC50 [3, 21]: 0.12 µM
IC50 ([11]; Table 1, LnCap): 0.15 µM
IC50 [11, 21]: 0.15 µM
IC50 [4]: > 31.2 µM
IC50 [5]: > 31.2 µM
SMILES: CCNCCCCNCC1CC1CNCCCCNCC1CC1CNCCCCNCC (mixture of isomers) [SL-11231]
effect on tumor growth ([7]; 12.5 mg/kg for 5 consecutive days): efficiently inhibits tumor growth
effect on human pancreatic tumor growth ([8]; 12.5 mg/kg i.p. q1d×5, 2 cycles): effectively inhibit human pancreatic tumor growth
effect on animal bodyweight ([10]; 12.5 mg/kg for 5 consecutive days, DU-145 xenograft): without appreciable effects on animal bodyweight

IC50 [1, 16]: 0.34 µM
IC50 [2, 17]: 0.4 µM
IC50 [3, 18]: 0.2 µM
SMILES: CCNCCCCNCCCCNCCCCNCCCCNCC1CC1CNCCCCNCCCCNCCCCNCCCCNCC (racemic) [SL-11241]

IC50 [1, 16]: 0.26 µM
IC50 [1, 19]: 0.26 µM
IC50 [2, 17]: > 31.2 µM
IC50 [2, 20]: > 31.2 µM
IC50 [3, 18]: 0.063 µM
IC50 [3, 21]: 0.06 µM
IC50 [4]: 4.25 µM
IC50 [5]: > 31.2 µM
SMILES: CCNCC1CC1CNCCCCNCC1CC1CNCC.Cl.Cl.Cl.Cl (mixture of isomers) [SL-11218]
activity against MCF-7 breast cancer cells ([4]; in words): some activity
cytotoxicity by CFE assay [6]: marked cytotoxicity
effect on tumor growth ([7]; 50 mg/kg i.p. q1w×4, 3 cycles): temporarily arrested tumor growth
effect on tumor growth ([7]; 75 mg/kg i.p. q1w×4, 3 cycles): arrested tumor growth throughout the treatment period of 120 days
effect on human pancreatic tumor growth ([8]; 50 mg/kg i.p. q1d×5, 2 cycles): effectively inhibit human pancreatic tumor growth
effect on large tumor xenograft ([9]; 75 mg/kg i.p. q1w×4, 2 cycles): stabilized
reduction in tumor volume compared to vehicle treated controls ([9]; 75 mg/kg i.p. q1w×4, after cycle 1): 27%
reduction in tumor volume compared to vehicle treated controls ([9]; 75 mg/kg i.p. q1w×4, after cycle 2): 64%
bodyweight loss ([10]; 75 mg/kg i.p. q1w×4, 3 cycles, 120 days, DU-145 xenograft): without appreciable bodyweight loss
drop in body weight ([10]; 75 mg/kg i.p. q1w×4, after cycle 2, large DU-145 xenograft, recovered between cycles): 15%

IC50 [1, 16]: 0.2 µM
IC50 [2, 17]: 4.17 µM
IC50 [3, 18]: 0.01 µM
IC50 ([11]; Table 1, LnCap): 0.21 µM
IC50 [12]: 0.07 µM
IC50 [13]: > 31.2 µM
SMILES: CCNCCCCNCC1CC1CNCCCCNCC (racemic) [SL-11093]

IC50 [1, 16]: 0.2 µM
IC50 [2, 17]: 0.3 µM
SMILES: CCNCCCCNCC1CC1CNCCCCNCCCCNCC1CC1CNCCCCNCCCCNCC1CC1CNCCCCNCC (stereo not drawn) [SL-11232, 10,11-25,26-40,41-ter[(E)-1,2-cyclopropyl]-3,8,13,23,28,33,38,43,48-decaazapentacontane decahydrochloride]
